This is an account of results in paper PMC9312114, “Synthesis and Evaluation of Novel DNA Minor Groove Binders as Antiamoebic Agents” (Antibiotics, 2022).

Data set [1] has as its system Acanthamoeba castellanii. The experiment in a line: Amoebicidal assay. It counts as cell-based, Acanthamoeba castellanii genotype T4 (ATCC 50492). To be noted: for MIC50 / viability at 50 µM: Acanthamoeba castellanii; for MIC50: read-out: MIC50 (minimum inhibitory concentration required to inhibit 50% of amoeba growth); for viability at 50 µM: 24 h, negative control 100%, read-out: amoeba viability; for A. castellanii, 25 µM: Table 2, 25 µM; for A. castellanii, 25 µM / A. castellanii, 75 µM / A. castellanii, 100 µM: amoeba alone 100; for A. castellanii, 75 µM: Table 2, 75 µM; for A. castellanii, 100 µM: Table 2, 100 µM. How it is done: Acanthamoeba castellanii genotype T4 (ATCC 50492) was cultivated in 10 mL growth medium of peptone yeast glucose (PYG) in tissue flasks (Baig, et al., 2021; Anwar, et al., 2019). The growth medium, PYG, consists of 0.75% proteose peptone, 0.75% yeast extract, and 1.5% glucose. Next, the amoebae were kept in tissue flasks and incubated at 30 °C.
To determine the compounds’ antiamoebic effects, amoebicidal assays were conducted. The 5 × 10^5 amoebae were placed in a 24-well plate and brought to a final volume of 500 µL. […] The 24-well plate was then placed in a 30 °C incubator for 24 h. Positive and negative controls were added to the assay in order to ensure reliable results. Serving as the negative control was the amoebae alone, with RPMI [4]. Meanwhile, amoebae, along with 0.25% sodium dodecyl sulphate (SDS), were used as the positive control. Through the addition of 0.1% methylene blue, live and dead amoebae were distinguished. Additionally, significant compounds were identified by conducting a Student’s t-test with a two-tailed distribution. Furthermore, the MIC50 values of three compounds were determined by using concentrations of […], 75, and 100 µM.

The test system of data set [2] is Acanthamoeba castellanii. The experiment in a line: Encystation assay. It is filed as cell-based. Particulars: 16% glucose, 48 h, negative control 100% cysts. How it is done: The effects of the compounds on amoeba encystation were determined through the conduction of encystation assays. Briefly, 1 × 10^6 trophozoites were incubated with the compounds in a final concentration of 16% filter-sterilized glucose. Following a 48 h incubation period, 0.1% SDS was added per well for 20 min. The cysts were then counted by using a haemocytometer. To ensure accuracy, Acanthamoeba castellanii was cultured in 16% glucose, serving as the negative control.

Data set [3] relates to Acanthamoeba castellanii cysts. The experiment in a line: Excystation assay. It counts as cell-based. To be noted: cysts in PYG, negative control 100%, read-out: viable trophozoites (re-emergence of cysts to trophozoites). How it is done: Amoeba culture was suspended in 3 mL phosphate-buffered saline (PBS) and placed on non-nutrient bacteriological agar plates to allow for the growing of Acanthamoeba castellanii cysts. After two weeks, PBS was applied to plates containing amoeba cysts, which were then scraped off. The amoebae were centrifuged at 3000× g for 10 min, and the resulting pellet was resuspended in RPMI. The 5 × 10^5 cysts were then incubated in PYG, along with 50 µM of the compounds. To ensure accuracy, amoeba cysts in PYG alone were considered as the negative control, whereas amoeba cysts in RPMI alone were taken as the positive control, as the cysts would not be able to revert back to trophozoites. The amoeba trophozoites were then numbered by using a haemocytometer.

For the next data set, the system named is HeLa cells. The experiment in a line: Cytotoxicity assay (LDH release). It is filed as cell-based, human. To be noted: for cytotoxicity against human HeLa cells: 50 µM, 24 h, LDH release, Triton X-100 = 100%. How it is done: HeLa cells were acquired from American Type Culture Collection (ATCC) of identification ATCC CCL-2, Singapore. The cells are utilized to conduct cytotoxicity and cytopathogenicity assays. Through their cultivation in complete media, the cells were grown, and then they were placed in a 95% humidifying incubator at 37 °C and 5% CO2. Complete medium comprises Roswell Park Memorial Media (RPMI), 1% penicillin–streptomycin, 1% minimum essential medium amino acids, 1% L-glutamine, and 10% fetal bovine serum (FBS). To determine the toxicity of the compounds against human HeLa cells, cytotoxicity assays were conducted. In short, HeLa cells were cultured in 96-well plates and treated with the compounds. The plate was then placed in a humidifying incubator with 95% humidity and 5% CO2, at 37 °C, for 24 h. After 24 h, the supernatant was collected, and the cytotoxicity of the compounds was determined through a cytotoxicity detection kit that measured the quantity of lactate dehydrogenase (LDH) release. Accurate results were ensured through the addition of positive and negative controls. Untreated HeLa cells served as the negative control, whereas HeLa cells treated with 1% Triton X-100 served as the positive control. Finally, the cytotoxic properties were numerically determined by following the necessary calculations: (absorbance of media from cells treated with the drugs—absorbance of media from cells of negative control)/(absorbance of media from cells of positive control—absorbance of media from cells of negative control) × 100 [19].

Data set [4] concerns Acanthamoeba castellanii on HeLa cell monolayers. The experiment in a line: Cytopathogenicity assay (amoeba-mediated host-cell death). To be noted: amoebae pretreated with 50 µM for 2 h, then 24 h on HeLa cells, negative control 100%. It counts as cell-based. How it is done: Amoeba-mediated host-cell death was determined by treating 5 × 10^5 amoebae with 50 µM of compounds. The amoeba-containing plate was then placed in the incubator for 2 h at 30 °C. Following the 2 h incubation period, the treated amoebae were put on confluent HeLa cell monolayers. The plate containing the treated amoebae and HeLa cells was incubated for 24 h. Progressing the incubation period, the supernatant was collected, and the cytotoxicity was determined. Accurate results were ensured through the addition of negative and positive controls. The untreated amoebae, alone, on the cells served as the negative control, while the cells treated with Triton X-100 served as the positive control.

The test system of data set [5] is Acanthamoeba cysts and trophozoites. Details: method as in PMID 9736540. Particulars: 0.5 to 2.5% solution; cited from earlier work.

Values after ≈ are worked out from the molar mass of the structure shown.

For `CN(C)CCCNC(=O)c1cc(NC(=O)c2cc(NC(=O)c3cc(NC(=O)c4cscn4)cn3C)cn2C)cn1C` [MGB6, N-(5-((5-((5-((3-(dimethylamino)propyl]carbamoyl)-1-methyl-1H-pyrrol-3-yl)carbamoyl)-1-methyl-1H-pyrrol-3-yl}carbamoyl)-1-methyl-1H-pyrrol-3-yl)-1,3-thiazole-4-carboxamide], in the data set on Acanthamoeba castellanii [1], the MIC50 worked out at 58.3 µM (≈ 33.8 µg/mL); the viability at 50 µM was determined as 59.5%; the “A. castellanii, 25 µM” value worked out at 57 ± 2.4; the “A. castellanii, 75 µM” value was 48 ± 5.5. In the data set with Acanthamoeba castellanii [1], the “A. castellanii, 100 µM” value is listed as 45 ± 1.4. The same compound yielded a cysts present in the data set on Acanthamoeba castellanii [2] of 46.3%. For the same compound, in data set [3], the viability at 50 µM was 41.4%. The “cytotoxicity against human HeLa cells” value in the data set on HeLa cells is reported as 14.4%. Also, in data set [4], the “amoeba-mediated host-cell death (cytotoxic activity due to amoeba)” value (“amoeba-mediated host-cell death” for short) is listed as 49.5%.
On to `CC(C)c1sc(NC(=O)c2cc(NC(=O)c3cc(NC(=O)c4nccn4C)cn3C)cn2C)nc1C(=O)NCCCN(C)C` [MGB3, N-(3-(dimethylamino)propyl)-5-isopropyl-2-(1-methyl-4-(1-methyl-4-(1-methyl-1H-imidazole-2-carboxamido)-1H-pyrrole-2-carboxamido)-1H-pyrrole-2-carboxamido)thiazole-4-carboxamide], for which, in the data set on Acanthamoeba castellanii [1], the MIC50 was determined as 65.9 µM (≈ 41 µg/mL); the viability at 50 µM stood at 76.2%; the “A. castellanii, 25 µM” value is on record as 43.7 ± 3.8; the “A. castellanii, 75 µM” value came to 51 ± 4.7. Besides, the “A. castellanii, 100 µM” value in the data set with Acanthamoeba castellanii [1] was determined as 46 ± 4.8. Further, in the data set on Acanthamoeba castellanii [2], the cysts present turned out to be 83.5%. Moreover, in data set [3], the viability at 50 µM came to 64.3%. Further, the “cytotoxicity against human HeLa cells” value in the data set with HeLa cells is 16.2%. In addition, in data set [4], the “amoeba-mediated host-cell death” value was 41.5%.
Take `Cn1cc(NC(=O)c2cc(NC(=O)c3ccc(/C=C/c4ccccc4)cc3)cn2C)cc1C(=O)NCCCN1CCOCC1` [MGB32, (E)-1-methyl-4-(1-methyl-4-(4-styrylbenzamido)-1H-pyrrole-2-carboxamido)-N-(3-morpholinopropyl)-1H-pyrrole-2-carboxamide]: the viability at 50 µM in the data set with Acanthamoeba castellanii [1] was 80.1%; in data set [3], 62.1%. The compound also showed a cysts present in the data set on Acanthamoeba castellanii [2] of 41.5%. In addition, the “cytotoxicity against human HeLa cells” value in the data set on HeLa cells was determined as 22.4%. Also, the “amoeba-mediated host-cell death” value in data set [4] stood at 96.3%.
For `Cn1cc(NC(=O)c2cc(NC(=O)c3ccc(C#Cc4ccccc4)cc3)cn2C)cc1C(=O)NCCCN1CCOCC1` [MGB28, 1-methyl-4-(1-methyl-4-(4-(phenylethynyl)benzamido)-1H-pyrrole-2-carboxamido)-N-(3-morpholinopropyl)-1H-pyrrole-2-carboxamide], in that order: 97.2%, 40.6%, 29.6%, 13.7% and 91.9%.
For `CN(C)CCCNC(=O)c1cc(NC(=O)c2cc(NC(=O)c3ccc(C#Cc4ccccc4)cc3)cn2C)cn1C` [MGB26, N-(3-(dimethylamino)propyl)-1-methyl-4-(1-methyl-4-(4(phenylethynyl)benzamido)-1H-pyrrole-2-carboxamido)-1H-pyrrole-2-carboxamide], in that order: 82.7%, 79.1%, 52.3%, 33.5% and 67.3%.
For the compound `Cn1cc(NC(=O)c2cc(NC(=O)CCSc3ccc4ccccc4c3)cn2C)cc1C(=O)NCCCN1CCOCC1` [MGB20, 1-methyl-4-(1-methyl-4-(3-(naphthalen-2-ylthio)propanamido)-1H-pyrrole-2-carboxamido)-N-(3-morpholinopropyl)-1H-pyrrole-2-carboxamide], in the data set on Acanthamoeba castellanii [1], the MIC50 stood at 83.6 µM (≈ 50.4 µg/mL); the viability at 50 µM came out at 81.9%; the “A. castellanii, 25 µM” value was 64 ± 3.2; the “A. castellanii, 75 µM” value came out at 54.6 ± 5.8. Also, the “A. castellanii, 100 µM” value in the data set on Acanthamoeba castellanii [1] is 48 ± 1.1. Moreover, in the data set on Acanthamoeba castellanii [2], the cysts present was found to be 39%. The viability at 50 µM in data set [3] is 96%. Moreover, the “cytotoxicity against human HeLa cells” value with HeLa cells turned out to be 31.4%. Moreover, the “amoeba-mediated host-cell death” value in data set [4] amounted to 83.2%.
For `Cn1cc(NC(=O)c2cc(NC(=O)c3cc4ccccc4oc3=O)cn2C)cc1C(=O)NCCCN1CCOCC1` [MGB16, 1-methyl-N-(1-methyl-5-{[3-(morpholin-4-yl)propyl]carbamoyl}-1H-pyrrol-3-yl)-4-(2-oxo-2H-chromene-3-amido)-1H-pyrrole-2-carboxamide], the viability at 50 µM with Acanthamoeba castellanii [1] was 43.2%; in data set [3] it was 51.7%. The compound also showed a cysts present with Acanthamoeba castellanii [2] of 45.6%. For the same compound, the “cytotoxicity against human HeLa cells” value in the data set on HeLa cells was 12.7%. Further, the “amoeba-mediated host-cell death” value in data set [4] is on record as 88.6%.
Consider povidone-iodine, for which the antiamoebic activity entry in data set [5] was “good amount of antiamoebic activity”.
In the case of `Cc1ccc(CSCCC(=O)Nc2cc(C(=O)Nc3cc(C(=O)NCCCN(C)C)n(C)c3)n(C)c2)cc1` [MGB22, N-(3-(dimethylamino)propyl)-1-methyl-4-(1-methyl-4-(3-((4-methylbenzyl)thio)propanamido)-1H-pyrrole-2-carboxamido)-1H-pyrrole-2-carboxamide], the viability at 50 µM in the data set on Acanthamoeba castellanii [1] stood at 66.5%; in data set [3], 52.9%. The cysts present with Acanthamoeba castellanii [2] is reported as 30.3%. The “cytotoxicity against human HeLa cells” value with HeLa cells is 33.7%. Moreover, in data set [4], the “amoeba-mediated host-cell death” value turned out to be 71.5%.
For `CC(C)c1sc(NC(=O)c2cc(NC(=O)c3cc(NC(=O)c4cscn4)cn3C)cn2C)nc1C(=O)NCCCN(C)C` [MGB4, N-(3-(dimethylamino)propyl)-5-isopropyl-2-(1-methyl-4-(1-methyl-4-(thiazole-4-carboxamido)-1H-pyrrole-2-carboxamido)-1H-pyrrole-2-carboxamido)thiazole-4-carboxamide], in that order: 95.2%, 47.3%, 82.3%, 18.4% and 49.4%.
For the compound Triton X-100 [reference compound], the “toxic activity (positive control)” value in the data set with HeLa cells is recorded as 100%.
As for `CN(C)CCCNC(=O)c1cc(NC(=O)c2cc(NC(=O)c3ccc(/C=C/c4ccccc4)cc3)cn2C)cn1C` [MGB30, (E)-N-(3-(dimethylamino)propyl)-1-methyl-4-(1-methyl-4-(4-styrylbenzamido)-1H-pyrrole-2-carboxamido)-1H-pyrrole-2-carboxamide], the viability at 50 µM is 63.4% in the data set on Acanthamoeba castellanii [1] and 78.1% in data set [3]. Moreover, the cysts present with Acanthamoeba castellanii [2] came out at 27.8%. The “cytotoxicity against human HeLa cells” value with HeLa cells worked out at 34%. For the same compound, the “amoeba-mediated host-cell death” value in data set [4] is 87.3%.
